{"source": "paper PMC4669759", "about": "(Cell Death & Disease, 2015)", "key": {"RS4;11 cell line": {"tested_on": "RS4;11 cell line", "assay": "Cell viability, RS4;11 cells", "format": "cell-based", "settings": "RS4;11, 48 h", "protocol": "Figure 4 Indole-2-carboxylic acids induce the hallmarks of apoptosis in MCL-1-dependent cancer cell line H929. (a) Digitonin-permeabilized H929 cells were treated with 10 μM BH3 peptides for 4 h, and intact H929 cells were incubated with increasing concentrations (0.1–10 μM) of A-1208746 for 4 h before assessing the levels of cytochrome c released into the cytosol. (b) H929 and RS4;11 cells were incubated with increasing concentrations of MCL-1 inhibitors or the BCL-2-selective inhibitor ABT-199 (venetoclax) for 48 h before determining cell viability. Cell killing IC50s are plotted with each value representing the mean of three separate experiments. Error bars represent the S.E.M. (c) H929 cells were incubated with increasing concentrations of MCL-1 inhibitors in the presence or absence of the pan-caspase inhibitor QVD (100 μM) for 4 h before assessing caspase-3/-7 activation, mitochondrial membrane polarization, and the exposure of phosphatidylserine. […]\nAdherent cell lines were seeded at 50 000 cells per well in 96-well plates and treated for 48 h with compounds diluted in half-log steps starting at 30 μM and ending at 0.001 μM. […] Effects on proliferation and viability were determined using CellTiter-Glo reagent from Promega (Madison, WI, USA) according to the manufacturer's instructions. IC50 values were determined by non-linear regression analysis of the concentration response data."}, "BCL-2–BAD complexes": {"biological_target": "T1, BCL-2–BAD complexes (Homo sapiens, UniProt P10415)", "T1 construct": "expressed in transfected cells; host or cells: T-REx-293, bicistronic expression module integrated at a single genomic site", "T1 sequence (P10415 whole entry, one chain of several)": "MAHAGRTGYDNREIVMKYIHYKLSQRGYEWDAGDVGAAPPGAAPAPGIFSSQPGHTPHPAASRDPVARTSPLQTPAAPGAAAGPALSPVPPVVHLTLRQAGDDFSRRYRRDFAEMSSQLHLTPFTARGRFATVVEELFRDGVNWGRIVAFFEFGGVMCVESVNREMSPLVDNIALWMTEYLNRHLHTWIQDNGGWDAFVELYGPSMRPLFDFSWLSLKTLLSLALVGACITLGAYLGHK", "assay": "Live cell redistribution assay, eGFP-BCL-2 and mCherry-BAD, T-REx-293 cells", "format": "cell-based", "settings": "10 μM, 300 min", "from_the_text": "To further rule out potential artifacts associated with lysate detergents that can influence interactions between BCL-2 family proteins,[47] we employed a recently described real-time imaging method to assess the effects on BCL-2 family complexes in live cells.[48] Briefly, interacting pairs of BCL-2 family proteins are expressed as fluorescent fusion proteins at stoichiometric levels from a bicistronic expression module integrated into a single site of the genome in T-REx-293 cells. […]\nFigure 3 A-1210477 inhibits MCL-1-BIM complexes in live cells. […] The decrease in amount of mCherry-BH3 protein localized to the mitochondria was quantified as a function of time as described in the Materials and Methods, normalized to DMSO control, and fitted to a single exponential decay. Each data point represents the mean change in intensity calculated from 10 fields of view, with error bars indicating the S.E.M. (b) T-REx-293 cells stably expressing eGFP-MCL-1(3B) and mCherry-BIMS(2A)ΔC were treated with 50 μM ABT-737 or increasing concentrations (1–25 μM) A-1210477 for 100 min. The decrease in amount of mCherry-BIMS(2A)ΔC localized to the mitochondria was quantified as in panel (a). (c) Representative fluorescence microscopic images of T-REx-293 cells stably expressing eGFP-BCL-2 family and interacting mCherry-BH3-only proteins before and after 300 min of treatment with 10 μM A-1210477 or (d) ABT-737. […]"}}, "data": [{"smiles": "Cc1nn(C)c(COc2ccc(N3CCN(S(=O)(=O)N(C)C)CC3)cc2)c1-c1cccc2c(CCCOc3cccc4ccccc34)c(C(=O)O)n(CCN3CCOCC3)c12", "note": "[A-1210477]", "values": [{"measurement": "effect on cell viability", "setting": "RS4;11 cell line", "value": "no effect"}, {"measurement": "redistribution of mCherry-BAD associated with BCL-2", "setting": "BCL-2–BAD complexes", "value": "no effect"}]}]}
